Measured values published in US6737383B1, “Herbicidal oxadiazolidines” (priority 1999, dated 2004).

Assays:
[1] = system: bedstraw; assay: Test B pre/postemergence bedstraw; type: in vivo, Galium aparine
Procedure, shortened: (§1)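 Response is a visual 0-to-10 score relative to untreated plants, where 0 means no effect and 10 means complete control, taken twelve to sixteen days after application. Treatments went onto soil at planting and onto foliage of 1- to 4-leaf plants, using a surfactant-containing non-phytotoxic solvent.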

[2] = system: blackgrass; assay: Test B pre/postemergence blackgrass; type: in vivo, Alopecurus myosuroides
Procedure, shortened: as §1

[3] = system: surinam grass; assay: Test B pre/postemergence surinam grass; type: in vivo, Brachiaria decumbens
Procedure, shortened: as §1

[4] = system: cocklebur; assay: Test B pre/postemergence cocklebur; type: in vivo, Xanthium strumarium
Procedure, shortened: as §1

[5] = system: corn; assay: Test B pre/postemergence corn; type: in vivo, Zea mays
Procedure, shortened: as §1

[6] = system: crabgrass; assay: Test B pre/postemergence crabgrass; type: in vivo, Digitaria sanguinalis
Procedure, shortened: as §1

[7] = system: giant foxtail; assay: Test B pre/postemergence giant foxtail; type: in vivo, Setaria faberii
Procedure, shortened: as §1

[8] = system: rape; assay: Test B pre/postemergence rape; type: in vivo, Brassica napus
Procedure, shortened: as §1

[9] = system: soybean; assay: Test B pre/postemergence soybean; type: in vivo, Glycine max
Procedure, shortened: as §1

[10] = system: sugar beet; assay: Test B pre/postemergence sugar beet; type: in vivo, Beta vulgaris
Procedure, shortened: as §1

[11] = system: velvetleaf; assay: Test B pre/postemergence velvetleaf; type: in vivo, Abutilon theophrasti
Procedure, shortened: as §1

[12] = system: wheat; assay: Test B pre/postemergence wheat; type: in vivo, Triticum aestivum
Procedure, shortened: as §1

[13] = system: purple nutsedge; assay: Test B pre/postemergence purple nutsedge; type: in vivo, Cyperus rotundus
Procedure, shortened: as §1

[14] = system: rice; assay: Test B flood test rice; type: in vivo, Oryza sativa
Procedure, shortened: (§2)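 Read-out is a visual response score from 0 (no effect) to 10 (complete control), assigned by comparison with untreated controls. Treatment was applied at the 2-leaf stage, and plants stayed in the greenhouse for twelve to sixteen days before scoring.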

[15] = system: smallflower flatsedge; assay: Test B flood test smallflower flatsedge; type: in vivo, Cyperus difformis
Procedure, shortened: as §2

[16] = system: duck salad; assay: Test B flood test duck salad; type: in vivo, Heteranthera limosa
Procedure, shortened: as §2

[17] = system: bamyardgrass; assay: Test B flood test barnyardgrass; type: in vivo, Echinochloa crus-galli
Procedure, shortened: as §2

[18] = Postemergence, Rate 125 g/ha, scale of 0 to 10 where 0 is no effect and 10 is complete control
[19] = Preemergence, Rate 62 g/ha, scale of 0 to 10 where 0 is no effect and 10 is complete control
[20] = Preemergence, Rate 125 g/ha, 0 is no effect, 10 is complete control
[21] = Preemergence, Rate 250 g/ha, scale 0 to 10, 0 is no effect, 10 is complete control
[22] = Preemergence, Rate 500 g/ha, scale 0 to 10 (0 no effect, 10 complete control)
[23] = Rate 62 g/ha, Postemergence, scale of 0 to 10 where 0 is no effect and 10 is complete control
[24] = Rate 250 g/ha, Postemergence, scale 0 to 10, 0 is no effect, 10 is complete control
[25] = Rate 500 g/ha, Postemergence, scale 0 to 10
[26] = Postemergence (flood test species), Rate 125 g/ha, scale of 0 to 10 where 0 is no effect and 10 is complete control
[27] = Rate 62 g/ha, Postemergence section, flood test species, scale of 0 to 10 where 0 is no effect and 10 is complete control
[28] = Rate 250 g/ha, Postemergence (flood test), scale 0 to 10, 0 is no effect, 10 is complete control
[29] = Rate 500 g/ha, listed under Postemergence (flood test species), scale 0 to 10

Cc1nsc(C)c1-n1c(=O)on(C(=O)N(c2ccc(Cl)cc2)C(C)C)c1=O [Compound 159]
3: Soybean plant response rating [9, 18] | Plant response rating, Soybean [9, 24] | Soybean plant response rating [9, 25]
0: Bedstraw plant response rating [1, 18] | Bedstraw plant response rating [1, 19] | Bedstraw plant response rating (0 to 10 scale) [1, 20] | Bedstraw plant response rating [1, 21] | Bedstraw plant response rating [1, 22] | Bedstraw plant response rating [1, 23] | Plant response rating, Bedstraw [1, 24] | Bedstraw plant response rating [1, 25] | Blackgrass plant response rating [2, 18] | Blackgrass plant response rating [2, 19] | Blackgrass plant response rating (0 to 10 scale) [2, 20] | Blackgrass plant response rating [2, 21] | Blackgrass plant response rating [2, 22] | Blackgrass plant response rating [2, 23] | Plant response rating, Blackgrass [2, 24] | Blackgrass plant response rating [2, 25] | B. signalgrass plant response rating [3, 18] | B. signalgrass plant response rating [3, 19] | B. signalgrass plant response rating (0 to 10 scale) [3, 20] | B. signalgrass plant response rating [3, 21] | B. signalgrass plant response rating [3, 22] | B. signalgrass plant response rating [3, 23] | Plant response rating, B. signalgrass [3, 24] | B. signalgrass plant response rating ([3]; Rate 500 g/ha, Postemergence, scale 0 to 10, 0 no effect, 10 complete control) | Cocklebur plant response rating [4, 18] | Cocklebur plant response rating [4, 19] | Cocklebur plant response rating (0 to 10 scale) [4, 20] | Cocklebur plant response rating [4, 21] | Cocklebur plant response rating [4, 22] | Cocklebur plant response rating [4, 23] | Plant response rating, Cocklebur [4, 24] | Cocklebur plant response rating [4, 25] | Corn plant response rating [5, 18] | Corn plant response rating [5, 19] | Corn plant response rating (0 to 10 scale) [5, 20] | Corn plant response rating [5, 21] | Corn plant response rating [5, 22] | Corn plant response rating [5, 23] | Plant response rating, Corn [5, 24] | Corn plant response rating [5, 25] | Crabgrass plant response rating [6, 18] | Crabgrass plant response rating [6, 19] | Crabgrass plant response rating (0 to 10 scale) [6, 20] | Crabgrass plant response rating [6, 21] | Crabgrass plant response rating [6, 22] | Crabgrass plant response rating [6, 23] | Plant response rating, Crabgrass [6, 24] | Crabgrass plant response rating [6, 25] | Giant foxtail plant response rating [7, 18] | Giant foxtail plant response rating [7, 19] | Giant foxtail plant response rating (0 to 10 scale) [7, 20] | Giant foxtail plant response rating [7, 21] | Giant foxtail plant response rating [7, 22] | Giant foxtail plant response rating [7, 23] | Plant response rating, Giant foxtail [7, 24] | Giant foxtail plant response rating [7, 25] | Rape plant response rating [8, 18] | Rape plant response rating [8, 19] | Rape plant response rating (0 to 10 scale) [8, 20] | Rape plant response rating [8, 21] | Rape plant response rating [8, 22] | Rape plant response rating [8, 23] | Plant response rating, Rape [8, 24] | Rape plant response rating [8, 25] | Soybean plant response rating [9, 19] | Soybean plant response rating (0 to 10 scale) [9, 20] | Soybean plant response rating [9, 21] | Soybean plant response rating [9, 22] | Soybean plant response rating [9, 23] | Sugarbeets plant response rating [10, 18] | Sugarbeets plant response rating [10, 19] | Sugarbeets plant response rating (0 to 10 scale) [10, 20] | Sugarbeets plant response rating [10, 21] | Sugarbeets plant response rating [10, 22] | Sugarbeets plant response rating [10, 23] | Plant response rating, Sugarbeets [10, 24] | Sugarbeets plant response rating [10, 25] | Velvetleaf plant response rating [11, 19] | Velvetleaf plant response rating (0 to 10 scale) [11, 20] | Velvetleaf plant response rating [11, 21] | Velvetleaf plant response rating [11, 22] | Plant response rating, Velvetleaf [11, 24] | Velvetleaf plant response rating [11, 25] | Wheat plant response rating [12, 19] | Wheat plant response rating (0 to 10 scale) [12, 20] | Wheat plant response rating [12, 21] | Wheat plant response rating [12, 22] | Plant response rating, Wheat [12, 24] | Wheat plant response rating [12, 25] | Nutsedge plant response rating [13, 18] | Nutsedge plant response rating [13, 19] | Nutsedge plant response rating (0 to 10 scale) [13, 20] | Nutsedge plant response rating [13, 21] | Nutsedge plant response rating [13, 22] | Nutsedge plant response rating [13, 23] | Plant response rating, Nutsedge [13, 24] | Nutsedge plant response rating [13, 25] | Rice plant response rating [14, 26] | Rice plant response rating [14, 27] | Plant response rating, Rice [14, 28] | Rice plant response rating [14, 29] | S. Flatsedge plant response rating [15, 26] | S. Flatsedge plant response rating [15, 27] | Plant response rating, S. Flatsedge [15, 28] | S. Flatsedge plant response rating [15, 29] | Ducksalad plant response rating [16, 26] | Ducksalad plant response rating [16, 27] | Plant response rating, Ducksalad [16, 28] | Ducksalad plant response rating [16, 29] | Barnyardgrass plant response rating [17, 26] | Barnyardgrass plant response rating [17, 27] | Plant response rating, Barnyardgrass [17, 28] | Barnyardgrass plant response rating [17, 29]
